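Method: 48-hour compound exposure of cells in 96-well plates, five concentrations, linear interpolation of endpoints. TGI is the concentration that stops growth completely.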
Key:
Test in all cases: NCI tumour cell line growth inhibition, 48 h
786-0 renal = system: 786-0 renal
A498 renal = system: A498 renal
ACHN renal = system: ACHN renal
CAKI-1 renal = system: CAKI-1 renal
CCRF-CEM leukemia = system: CCRF-CEM leukemia
DU-145 prostate = system: DU-145 prostate
EKVX NSCLC = system: EKVX NSCLC
HCC-2998 colon = system: HCC-2998 colon
HCT-116 colon = system: HCT-116 colon
HCT-15 colon = system: HCT-15 colon
HL-60(TB) leukemia = system: HL-60(TB) leukemia
HOP-62 NSCLC = system: HOP-62 NSCLC
HOP-92 NSCLC = system: HOP-92 NSCLC
HS 578T breast = system: HS 578T breast
HT29 colon = system: HT29 colon
IGROV1 ovarian = system: IGROV1 ovarian
K-562 leukemia = system: K-562 leukemia
KM12 colon = system: KM12 colon
LOX IMVI melanoma = system: LOX IMVI melanoma
M14 melanoma = system: M14 melanoma
MCF7 breast = system: MCF7 breast
MDA-MB-231 breast = system: MDA-MB-231 breast
MDA-MB-435 = system: MDA-MB-435
MDA-N = system: MDA-N
MOLT-4 leukemia = system: MOLT-4 leukemia
NCI-H226 lung = system: NCI-H226 lung
NCI-H23 lung = system: NCI-H23 lung
NCI-H460 lung = system: NCI-H460 lung
NCI-H522 lung = system: NCI-H522 lung
NCI/ADR-RES ovarian = system: NCI/ADR-RES ovarian
OVCAR-3 ovarian = system: OVCAR-3 ovarian
OVCAR-4 ovarian = system: OVCAR-4 ovarian
OVCAR-5 ovarian = system: OVCAR-5 ovarian
OVCAR-8 ovarian = system: OVCAR-8 ovarian
PC-3 prostate = system: PC-3 prostate
RPMI-8226 leukemia = system: RPMI-8226 leukemia
RXF 393 renal = system: RXF 393 renal
SF-268 CNS = system: SF-268 CNS
SF-295 CNS = system: SF-295 CNS
SF-539 CNS = system: SF-539 CNS
SK-MEL-2 melanoma = system: SK-MEL-2 melanoma
SK-MEL-28 melanoma = system: SK-MEL-28 melanoma
SK-MEL-5 melanoma = system: SK-MEL-5 melanoma
SK-OV-3 ovarian = system: SK-OV-3 ovarian
SR leukemia = system: SR leukemia
SW-620 colon = system: SW-620 colon
T-47D breast = system: T-47D breast
TK-10 renal = system: TK-10 renal
U251 CNS = system: U251 CNS
UACC-257 melanoma = system: UACC-257 melanoma
UO-31 renal = system: UO-31 renal

CC(C)=CCC/C(C)=C/C=C/C(C)=C/C=C/C(C)=C/C=C/C=C(C)/C=C/C=C(C)/C=C/[C@H]1C(C(C)(C)O)CC[C@]1(C)O (stereo partly specified)
TGI (786-0 renal): 46.8 µM | TGI (A498 renal): 84.8 µM | TGI (ACHN renal): 45.5 µM | TGI (CAKI-1 renal): > 100 µM | TGI (CCRF-CEM leukemia): 34 µM | TGI (DU-145 prostate): 49.9 µM | TGI (EKVX NSCLC): > 100 µM | TGI (HCC-2998 colon): 30 µM | TGI (HCT-116 colon): 31.2 µM | TGI (HCT-15 colon): 51.8 µM | TGI (HL-60(TB) leukemia): 48.9 µM | TGI (HOP-62 NSCLC): 40.8 µM | TGI (HOP-92 NSCLC): 28.3 µM | TGI (HS 578T breast): 59.1 µM | TGI (HT29 colon): 86.2 µM | TGI (IGROV1 ovarian): 49.5 µM | TGI (K-562 leukemia): 63.6 µM | TGI (KM12 colon): 70.6 µM | TGI (LOX IMVI melanoma): 68.3 µM | TGI (M14 melanoma): 91.1 µM | TGI (MCF7 breast): 35.5 µM | TGI (MDA-MB-231 breast): 66.9 µM | TGI (MDA-MB-435): 61.2 µM | TGI (MDA-N): 81.6 µM | TGI (MOLT-4 leukemia): 54.9 µM | TGI (NCI-H226 lung): > 100 µM | TGI (NCI-H23 lung): 72.7 µM | TGI (NCI-H460 lung): > 100 µM | TGI (NCI-H522 lung): 36.8 µM | TGI (NCI/ADR-RES ovarian): > 100 µM | TGI (OVCAR-3 ovarian): 37.8 µM | TGI (OVCAR-4 ovarian): > 100 µM | TGI (OVCAR-5 ovarian): > 100 µM | TGI (OVCAR-8 ovarian): 52.2 µM | TGI (PC-3 prostate): > 100 µM | TGI (RPMI-8226 leukemia): 54.5 µM | TGI (RXF 393 renal): 45.4 µM | TGI (SF-268 CNS): 42.4 µM | TGI (SF-295 CNS): > 100 µM | TGI (SF-539 CNS): > 100 µM | TGI (SK-MEL-2 melanoma): > 100 µM | TGI (SK-MEL-28 melanoma): 41.9 µM | TGI (SK-MEL-5 melanoma): 33.5 µM | TGI (SK-OV-3 ovarian): > 100 µM | TGI (SR leukemia): 54.4 µM | TGI (SW-620 colon): 65.8 µM | TGI (T-47D breast): > 100 µM | TGI (TK-10 renal): > 100 µM | TGI (U251 CNS): 47.4 µM | TGI (UACC-257 melanoma): 59.2 µM | TGI (UO-31 renal): 47 µM
